The text below walks through data of patent US20050042219A1, “Engineered Fab' fragment anti-tumor necrosis factor alpha in combination with disease modifying anti-rheumatic drugs” (priority 2002, published 2005).

Marks after values point to notes of the source that are not given here.

The nature of data set [1]: PHA-001 study: PK interaction study with methotrexate in RA patients. As to conditions: single dose of CDP-870 400 mg SC; oral MTX 5-17.5 mg/week.
Data set [2] deals with patients with active RA. Kind of data set: Celltech-002 study: single IV infusion, ACR responder rates. Type of data set: in vivo, human. As to conditions: for ACR20 responder rate / ACR50 responder rate: week 8. The protocol: DMARD therapy was discontinued one month prior to study start; concomitant nonsteroidal anti-inflammatory drug (NSAID) and corticosteroid use was allowed provided the doses had been stabilized prior to entry into the study. […] Patients were assessed over an 8-week period.
Patients were assessed for an additional 8-week period.
(§1) The overall effect of CDP870 in reducing the signs and symptoms of RA was summarized using the following global index: • American College of Rheumatology (ACR) Core Set of Disease Activity Measures for Rheumatoid Arthritis Clinical Trials. A patient was considered an ACR 20/50/70 responder if 20/50/70% or greater improvement in number of swollen joints and tender joints and a 20/50/70% or greater improvement in three of the five remaining ACR core set measures (Patient's Assessment of Pain by VAS, Patient's Global Assessment of Disease Activity, Physician's Global Assessment of Disease Activity, Patient's Assessment of Physical Function by mHAQ, acute phase reactant value) was observed; and […]

The conditions of data set [3]: human, in vivo.
Data set [4] in a line: Half-life of the PEGylated Fab′ fragment. Type of data set: in vivo. Particulars: PEG chains linked by a single maleimide group.
For data set [5], the system named is patients with active RA. The experiment in a line: Celltech-004 study: SC every 4 weeks, ACR responder rates. In kind it is in vivo, human. As to conditions: for ACR-20 responder rate / ACR-50 responder rate / ACR-70 responder rate: week 12. The protocol:
Again, DMARD therapy was discontinued one month prior to study start; concomitant NSAID and corticosteroid use was allowed provided the doses had been stabilized prior to entry into the study.
The protocol was subsequently amended based on the results of the double-blind portion of Panel 1, to increase the dose to 400 mg SC every 4 weeks for an additional 108 weeks.
as §1

The target of the next data set is T1, TNFβ (lymphotoxin) (Homo sapiens, UniProt P01374).
T1 sequence (P01374 35-205): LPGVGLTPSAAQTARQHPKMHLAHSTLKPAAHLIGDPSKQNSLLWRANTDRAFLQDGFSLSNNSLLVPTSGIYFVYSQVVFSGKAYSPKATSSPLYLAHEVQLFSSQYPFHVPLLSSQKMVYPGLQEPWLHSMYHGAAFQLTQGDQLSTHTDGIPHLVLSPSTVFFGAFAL
The experiment in a line: Neutralization of TNFβ (lymphotoxin).

With `CN(Cc1cnc2nc(N)nc(N)c2n1)c1ccc(C(=O)N[C@@H](CCC(=O)O)C(=O)O)cc1` [MTX, methotrexate], in data set [1], the “mean dose-adjusted MTX plasma concentrations, MTX alone versus coadministration with CDP-870” value is given as “not significantly different”.
A word on the t½: it is the time in which the quantity being followed falls by half. Lower therefore signals rapid decline. Regarding “CDP-870: PEGylated anti-TNFα Fab′ fragment derived from antibody hTNF40, linked via a cysteine to a lysyl-maleimide linker bearing two methoxy PEG residues”, the ACR20 responder rate is on record as 25 % of Patients with patients with active RA [2] (1 mg/kg single IV), 75 % of Patients with patients with active RA [2] (5 mg/kg single IV) and 75 % of Patients in the data set on patients with active RA [2] (20 mg/kg single IV). Moreover, the ACR50 responder rate is reported as 13 % of Patients in the data set with patients with active RA [2] (1 mg/kg single IV), 13 % of Patients with patients with active RA [2] (5 mg/kg single IV) and 50 % of Patients with patients with active RA [2] (20 mg/kg single IV). Further, in the data set on patients with active RA [2] (single IV dose of 1, 5 or 20 mg/kg, over 8 weeks), the “efficacy in reducing the signs and symptoms of RA” value is “efficacious”. Moreover, the “mean plasma concentration at 55 days postdose” value in data set [3] stood at 2740 ng/mL. The “CL/F (plasma clearance)” value in data set [3] (sc) is 0.021 L/h. Also, the t½ in data set [3] (sc) was 10.738 days. The “mean t½” value in data set [3] (sc, 400 mg) is on record as 10.7 days. Moreover, the “overall plasma exposure (AUC) over the 55-day monitoring period” value in data set [3] (sc, 400 mg) is recorded as “approximately 22000 hr*μg/mL”. For the same molecule, in data set [4], the half-life entry was “about 11 days”. Also, the ACR-20 responder rate with patients with active RA [5] (50 mg SC every 4 weeks) is given as 21 % of Patients; with patients with active RA [5] (100 mg SC every 4 weeks), 20 % of Patients; with patients with active RA [5] (200 mg SC every 4 weeks), 34 % of Patients; in the data set on patients with active RA [5] (400 mg SC every 4 weeks) it was 60* % of Patients; in the data set with patients with active RA [5] (600 mg SC every 4 weeks), 64* % of Patients; in the data set on patients with active RA [5] (800 mg SC every 4 weeks), 79* % of Patients. The ACR-50 responder rate in the data set with patients with active RA [5] (50 mg SC every 4 weeks) is recorded as 8 % of Patients; with patients with active RA [5] (100 mg SC every 4 weeks), 5 % of Patients; in the data set with patients with active RA [5] (200 mg SC every 4 weeks) it was 17* % of Patients; in the data set with patients with active RA [5] (400 mg SC every 4 weeks), 40* % of Patients; in the data set on patients with active RA [5] (600 mg SC every 4 weeks), 33* % of Patients; with patients with active RA [5] (800 mg SC every 4 weeks), 47* % of Patients. Also, the ACR-70 responder rate in the data set with patients with active RA [5] (50 mg SC every 4 weeks) is listed as 5 % of Patients; in the data set on patients with active RA [5] (100 mg SC every 4 weeks), 3 % of Patients; in the data set on patients with active RA [5] (200 mg SC every 4 weeks), 7 % of Patients; in the data set on patients with active RA [5] (400 mg SC every 4 weeks), 29* % of Patients; in the data set on patients with active RA [5] (600 mg SC every 4 weeks) it was 21* % of Patients; with patients with active RA [5] (800 mg SC every 4 weeks), 21* % of Patients. Besides, the “efficacy in treating the signs and symptoms of RA” value in the data set with patients with active RA [5] (doses ≧400 mg SC every 4 weeks) is “efficacious”. In addition, the “neutralization of TNFβ (lymphotoxin)” value with TNFβ (lymphotoxin) was “does not neutralize”.
